Data: EP0276057B1, “Piperazinylpyrimidines as beta-adrenergic receptor blocking agents” (Merck & Co., Inc., priority 1987, dated 1988)

How the values were obtained:
ß2 = ß2 (Homo sapiens, UniProt P07550); assay: Block of ligand binding to β-adrenergic receptor, ß2; conditions: for IC50: read-out: Concentration (nM) To Block Binding of Ligand by 50% ß2; for inhibition at 10 µM: at 10,000 nM, 50% blockade not achieved at reasonable concentrations, read-out: % blocked at nM concentration shown ß2
ß1 = ß1 (Homo sapiens, UniProt P08588); assay: Block of ligand binding to β-adrenergic receptor, ß1; conditions: for IC50: read-out: Concentration (nM) To Block Binding of Ligand by 50% ß1; for inhibition at 10 µM: at 10,000 nM, 50% blockade not achieved at reasonable concentrations, read-out: % blocked at nM concentration shown ß1
Chain of ß1 (P08588 whole entry): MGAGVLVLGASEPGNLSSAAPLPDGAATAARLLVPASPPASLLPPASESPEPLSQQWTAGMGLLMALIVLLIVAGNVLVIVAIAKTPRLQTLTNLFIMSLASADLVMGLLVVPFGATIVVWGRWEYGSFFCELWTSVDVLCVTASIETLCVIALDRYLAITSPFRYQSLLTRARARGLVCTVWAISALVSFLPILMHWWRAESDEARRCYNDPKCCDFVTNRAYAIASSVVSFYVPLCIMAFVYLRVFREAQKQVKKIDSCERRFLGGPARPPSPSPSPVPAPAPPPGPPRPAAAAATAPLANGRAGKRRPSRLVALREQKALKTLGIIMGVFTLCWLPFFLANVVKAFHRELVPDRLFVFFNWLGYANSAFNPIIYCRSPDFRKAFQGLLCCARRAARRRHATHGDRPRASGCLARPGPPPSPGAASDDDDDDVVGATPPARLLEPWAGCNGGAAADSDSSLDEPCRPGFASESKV

Chain of ß2 (P07550 whole entry): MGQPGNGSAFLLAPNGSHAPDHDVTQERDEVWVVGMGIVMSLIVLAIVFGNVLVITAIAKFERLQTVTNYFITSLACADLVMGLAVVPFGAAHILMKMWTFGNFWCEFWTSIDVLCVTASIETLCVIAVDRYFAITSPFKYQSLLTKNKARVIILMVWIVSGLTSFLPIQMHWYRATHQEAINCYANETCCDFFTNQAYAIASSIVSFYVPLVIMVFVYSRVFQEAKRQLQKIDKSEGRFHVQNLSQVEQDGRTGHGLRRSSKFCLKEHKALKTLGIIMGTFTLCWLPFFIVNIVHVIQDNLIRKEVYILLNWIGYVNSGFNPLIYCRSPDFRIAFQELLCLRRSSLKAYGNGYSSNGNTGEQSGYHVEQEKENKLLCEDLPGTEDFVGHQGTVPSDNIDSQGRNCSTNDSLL

IC50 (ß2) [nM]	IC50 (ß1) [nM]	inhibition at 10 µM (ß1) [%]	inhibition at 10 µM (ß2) [%]	Structure (SMILES)
4800	4300	–	–	CCCCc1nc2c(c(N3CCN(C)CC3)n1)SCCC2
27000	–	3	–	CCN1CCN(c2nc(C)nc3c2SCCC3)CC1
–	–	0	0	Cc1nc2c(c(N3CCN(Cc4ccccc4)CC3)n1)SCCC2
–	–	15	24	Cc1nc2c(c(N3CCN(C)CC3)n1)CSC2
–	–	6	8	Cc1nc2c(c(N3CCN(C4CC4)CC3)n1)SCCC2
314	680	–	–	Cc1nc2c(c(N3CCNCC3)n1)SCCC2 [R^1 = -CH3, R^2 = H (the 1st table r1 drawing)]
340	820	–	–	Cc1nc2c(c(N3CCNCC3)n1)CSC2 [R^1 = -CH3, R^2 = H (the 1st table r11 drawing)]

Structure (SMILES)	IC50 (ß2) [nM]	IC50 (ß1) [nM]	inhibition at 10 µM (ß1) [%]	inhibition at 10 µM (ß2) [%]
CCc1nc(N2CCN(C)CC2)c2sccc2n1	1040	2400	–	–
CCc1nc(N2CCNCC2)c2sccc2n1 [R^1 = -C2H5, R^2 = H (the 2nd table r0 drawing)]	140	300	–	–
